# Laboratory results published in publication doi:10.64898/2025.12.08.692997v2 (biorxiv, 2025).
# Where a name gives a salt, the structure may show the parent alone. Read-outs that look alike come from different tables or passages of the source.
# What was measured:
# Assay in all cases: biochemical
# [1] = molecular target: T1, human EphB2-His ectodomain - human EphrinB2-Fc ectodomain (EphB2-EphrinB2 tetramer) (Homo sapiens, UniProt P29323+P52799); details: EphrinB2-EphB2 IC50 (Absolute, µM)
# [2] = molecular target: T1, human EphB2-His ectodomain - human EphrinB2-Fc ectodomain (EphB2-EphrinB2 tetramer)
# [3] = molecular target: T1, human EphB2-His ectodomain - human EphrinB2-Fc ectodomain (EphB2-EphrinB2 tetramer); details: EphrinB2-EphB2 IC50 (Relative, µM)
# [4] = molecular target: T1, human EphB2-His ectodomain - human EphrinB2-Fc ectodomain (EphB2-EphrinB2 tetramer); remark: listed apart in the source
# T1 sequence (P52799 28-229): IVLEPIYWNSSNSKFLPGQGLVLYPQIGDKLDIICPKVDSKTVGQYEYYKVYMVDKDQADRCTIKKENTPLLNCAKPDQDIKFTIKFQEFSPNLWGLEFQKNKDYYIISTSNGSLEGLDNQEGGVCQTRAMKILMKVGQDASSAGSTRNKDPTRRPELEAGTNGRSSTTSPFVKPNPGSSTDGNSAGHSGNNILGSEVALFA
# T1 sequence (P29323 19-543): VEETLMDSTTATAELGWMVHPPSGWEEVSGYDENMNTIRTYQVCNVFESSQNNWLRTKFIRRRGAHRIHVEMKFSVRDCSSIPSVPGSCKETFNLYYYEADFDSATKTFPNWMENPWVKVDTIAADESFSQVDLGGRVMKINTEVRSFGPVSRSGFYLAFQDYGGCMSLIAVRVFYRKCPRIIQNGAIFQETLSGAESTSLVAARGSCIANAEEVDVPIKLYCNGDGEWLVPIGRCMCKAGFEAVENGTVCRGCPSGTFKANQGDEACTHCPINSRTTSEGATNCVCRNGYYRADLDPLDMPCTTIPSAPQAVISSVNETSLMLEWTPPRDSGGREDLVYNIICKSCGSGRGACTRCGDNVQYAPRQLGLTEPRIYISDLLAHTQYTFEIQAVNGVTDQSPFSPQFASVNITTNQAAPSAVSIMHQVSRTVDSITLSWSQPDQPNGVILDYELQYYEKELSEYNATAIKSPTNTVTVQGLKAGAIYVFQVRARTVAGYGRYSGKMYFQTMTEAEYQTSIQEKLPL
smiles,measurement,setting,value
"Oc1ccc(CN2CCN(c3ccccc3)CC2)c2cccnc12 [QPPh, 5-((4-phenylpiperazin-1-yl)methyl)quinolin-8-ol]",IC50,[1],> 3.2 µM
"COc1ccc(C(=O)Oc2cccc3cccnc23)cc1Cl [compound 13, 8-quinolinyl 3-chloro-4-methoxybenzoate]",IC50,[2],> 100 µM
"Oc1ccc(CN2CCN(c3ccc(I)cc3)CC2)c2cccnc12 [QPI4 . 2HCl, 8-hydroxy-5-((4-(4-iodophenyl)piperazin-1-ium-1-yl)methyl)quinolin-1-ium chloride]",IC50,[1],> 1.6 µM
"Cc1ccc2c(CN3CCN(c4ccc(Br)cc4)CC3)ccc(O)c2n1 [2-MeQPB4, 5-((4-(4-bromophenyl)piperazin-1-yl)methyl)-2-methylquinolin-8-ol]",IC50,[1],> 3.2 µM
same,IC50,[3],> 3.2 µM
"O=C(Oc1c(I)cc(Cl)c2cccnc12)N1CCCCC1 [compound 9, 5-chloro-7-iodo-8-quinolinyl 1-piperidinecarboxylate]",IC50,[4],> 100 µM
"COc1ccccc1N1CCN(Cc2cc(Br)c(O)c3ncccc23)CC1 [3511-0013, 7-bromo-5-((4-(2-methoxyphenyl)piperazin-1-yl)methyl)quinolin-8-ol]",IC50,[1],> 1.6 µM
"O=C(Oc1c(Cl)cc(Cl)c2cccnc12)N1CCOCC1 [compound 14, 5,7-dichloro-8-quinolinyl 4-morpholinecarboxylate]",IC50,[4],> 100 µM
"Oc1ccc(CN2CCOCC2)c2cccnc12 [A19 . 2 HCl, 4-((8-hydroxyquinolin-1-ium-5-yl)methyl)morpholin-4-ium chloride]",IC50,[1],> 6.4 µM
"Oc1ccc(CN2CCN(c3ccc(F)cc3F)CC2)c2cccnc12 [QPDF, 5-((4-(2,4-difluorophenyl)piperazin-1-yl)methyl)quinolin-8-ol]",IC50,[1],> 1.6 µM
same,IC50,[3],> 1.6 µM
"Oc1c(Br)cc(CN2CCOCC2)c2cccnc12 [A20 . 2 HCl, 4-((7-bromo-8-hydroxyquinolin-1-ium-5-yl)methyl)morpholin-4-ium chloride]",IC50,[1],0.78 µM
"O=S1(=O)CCN(Cc2cc(Br)c(O)c3ncccc23)CC1 [QTM-Br . 2 HCl, 4-((7-bromo-8-hydroxyquinolin-1-ium-5-yl)methyl)thiomorpholin-4-ium 1,1-dioxide chloride]",IC50,[3],0.62 µM
"CN(C(=O)Oc1c(Cl)cc(Cl)c2cccnc12)c1ccccc1 [compound 3, 5,7-dichloro-8-quinolinyl methyl(phenyl)carbamate]",IC50,[4],> 100 µM
"O=C(Oc1cccc2cccnc12)c1ccc(Br)cc1 [compound 1, 8-quinolinyl 4-bromobenzoate]",IC50,[2],> 100 µM
"COc1ccc(C(=O)Oc2ccc(Cl)c3cccnc23)cc1 [compound 16, 5-chloro-8-quinolinyl 4-methoxybenzoate]",IC50,[2],> 100 µM
"OCc1ccc2c(CN3CCOCC3)ccc(O)c2n1 [2OH-A19, 2-(hydroxymethyl)-5-(morpholinomethyl)quinolin-8-ol]",IC50,[1],> 3.2 µM
same,IC50,[3],> 3.2 µM
"Cc1ccc(N(C)C(=O)Oc2c(Br)cc(Br)c3ccc(C)nc23)cc1 [compound 13, 5,7-dibromo-2-methylquinolin-8-yl methyl(4-methylphenyl)carbamate]",IC50,[4],> 100 µM
"COc1ccc2[nH]cc(C(=O)N3CCN(c4ccc(Br)cc4)CC3)c2c1 [IPB4, (4-(4-bromophenyl)piperazin-1-yl)(5-methoxy-1H-indol-3-yl)methanone]",IC50,[1],> 1.6 µM
same,IC50,[3],> 1.6 µM
"COc1ccc2[nH]cc(C(=O)N3CCN(c4ccccc4OC)CC3)c2c1 [IMP2, (5-methoxy-1H-indol-3-yl)(4-(2-methoxyphenyl)piperazin-1-yl)methanone]",IC50,[1],> 1.6 µM
same,IC50,[3],> 1.6 µM
"Cc1ccc(C(=O)Oc2c(Cl)cc(Cl)c3cccnc23)cc1C [compound 17, 5,7-dichloro-8-quinolinyl 3,4-dimethylbenzoate]",IC50,[2],> 100 µM
"CC(=O)Nc1ccc(N2CCN(Cc3ccc(O)c4ncccc34)CC2)cc1 [QPA-Ac, N-(4-(4-((8-hydroxyquinolin-5-yl)methyl)piperazin-1-yl)phenyl)acetamide]",IC50,[1],> 3.2 µM
"O=[N+]([O-])c1cc(CN2CCOCC2)c2cccnc2c1O [A19-NO2 . 2 HCl, 4-((8-hydroxy-7-nitroquinolin-1-ium-5-yl)methyl)morpholin-4-ium chloride]",IC50,[1],> 1.6 µM
same,IC50,[3],> 1.6 µM
"OCc1ccc2c(CN3CCOCC3)cc(Br)c(O)c2n1 [2OH-A20, 7-bromo-2-(hydroxymethyl)-5-(morpholinomethyl)quinolin-8-ol]",IC50,[1],> 3.2 µM
"O=S1(=O)CCN(Cc2cc(I)c(O)c3ncccc23)CC1 [QTM-I . 2 HCl, 4-((8-hydroxy-7-iodoquinolin-1-ium-5-yl)methyl)thiomorpholin-4-ium 1,1-dioxide chloride]",IC50,[1],> 1.6 µM
"O=C(Oc1ccc(Cl)c2cccnc12)c1cccc(Br)c1 [compound 7, 5-chloro-8-quinolinyl 3-bromobenzoate]",IC50,[2],> 100 µM
"O=C(Oc1ccc(Cl)c2cccnc12)c1ccc(Cl)c(Cl)c1 [compound 10, 5-chloro-8-quinolinyl 3,4-dichlorobenzoate]",IC50,[2],> 100 µM
"CCN(CC)C(=O)Oc1c(Cl)cc(Cl)c2cccnc12 [compound 6, 5,7-dichloro-8-quinolinyl diethylcarbamate]",IC50,[4],> 100 µM
"COc1ccccc1N1CCN(Cc2ccc(O)c3ncccc23)CC1 [3511-0013-BF, 5-((4-(2-methoxyphenyl)piperazin-1-yl)methyl)quinolin-8-ol]",IC50,[1],> 3.2 µM
"Oc1ccc(CN2CCN(c3ccccc3)CC2)c2cccnc12 [QPPh . 2HCl, 8-hydroxy-5-((4-phenylpiperazin-1-ium-1-yl)methyl)quinolin-1-ium chloride]",IC50,[1],> 1.6 µM
same,IC50,[3],> 1.6 µM
"CN(C)C(=O)Oc1c(I)cc(Cl)c2cccnc12 [compound 11, 5-chloro-7-iodo-8-quinolinyl dimethylcarbamate]",IC50,[4],> 100 µM
"O=[N+]([O-])c1cc(CN2CCS(=O)(=O)CC2)c2cccnc2c1O [QTM-NO2, 4-((8-hydroxy-7-nitroquinolin-5-yl)methyl)thiomorpholine 1,1-dioxide]",IC50,[1],> 3.2 µM
"Cc1ccc2c(CN3CCN(c4ccc(Br)cc4)CC3)ccc(O)c2n1 [2-MeQPB4 . 2 HCl, 5-((4-(4-bromophenyl)piperazin-1-ium-1-yl)methyl)-8-hydroxy-2-methylquinolin-1-ium chloride]",IC50,[1],> 1.6 µM
same,IC50,[3],> 1.6 µM
"CN(C(=O)Oc1cccc2cccnc12)c1ccccc1 [compound 2, 8-quinolinyl methyl(phenyl)carbamate]",IC50,[4],> 100 µM
"COc1ccc2[nH]cc(C(=O)N3CCOCC3)c2c1 [IM, (5-methoxy-1H-indol-3-yl)(morpholino)methanone]",IC50,[1],> 3.2 µM
same,IC50,[3],> 3.2 µM
"Oc1c(Br)cc(CN2CCN(Cc3ccc(Br)cc3)CC2)c2cccnc12 [BQPB4-Bn, 7-bromo-5-((4-(4-bromobenzyl)piperazin-1-yl)methyl)quinolin-8-ol]",IC50,[1],> 3.2 µM
"O=C(Cc1ccccc1)Nc1ccc(N2CCN(Cc3cc(Br)c(O)c4ncccc34)CC2)cc1 [BQPA-PAc, N-(4-(4-((7-bromo-8-hydroxyquinolin-5-yl)methyl)piperazin-1-yl)phenyl)-2-phenylacetamide]",IC50,[1],> 3.2 µM
same,IC50,[3],> 3.2 µM
"CN(C)C(=O)Oc1c(Br)cc(Cl)c2cccnc12 [compound 8, 7-bromo-5-chloro-8-quinolinyl dimethylcarbamate]",IC50,[4],> 100 µM
"CCN(CC)C(=O)Oc1c(Br)cc(Cl)c2cccnc12 [compound 7, 7-bromo-5-chloro-8-quinolinyl diethylcarbamate]",IC50,[4],> 100 µM
"Oc1ccc(CN2CCN(Cc3ccc(C(F)(F)F)cc3)CC2)c2cccnc12 [QPCF34-Bn, 5-((4-(4-(trifluoromethyl)benzyl)piperazin-1-yl)methyl)quinolin-8-ol]",IC50,[1],> 1.6 µM
same,IC50,[3],> 1.6 µM
"O=C(Oc1ccc(Cl)c2cccnc12)c1cccc(Cl)c1 [compound 8, 5-chloro-8-quinolinyl 3-chlorobenzoate]",IC50,[2],> 100 µM
"O=C(Oc1c(Br)cc(Cl)c2cccnc12)N1CCOCC1 [compound 15, 7-bromo-5-chloro-8-quinolinyl 4-morpholinecarboxylate]",IC50,[4],> 100 µM
"Cc1ccc2c(CN3CCOCC3)cc(Br)c(O)c2n1 [2-MeA20, 7-bromo-2-methyl-5-(morpholinomethyl)quinolin-8-ol]",IC50,[1],> 3.2 µM
"CCN(CC)C(=O)Oc1c(I)cc(Cl)c2cccnc12 [compound 10, 5-chloro-7-iodo-8-quinolinyl diethylcarbamate]",IC50,[4],> 100 µM
"Cc1cccc(C(=O)Oc2ccc(Cl)c3cccnc23)c1 [compound 18, 5-chloro-8-quinolinyl 3-methylbenzoate]",IC50,[2],> 100 µM
"O=[N+]([O-])c1cc(CN2CCOCC2)c2cccnc2c1O [A19-NO2, 5-(morpholinomethyl)-7-nitroquinolin-8-ol]",IC50,[1],> 3.2 µM
same,IC50,[3],> 3.2 µM
"Oc1ccc(CN2CCN(c3ccc(Br)cn3)CC2)c2cccnc12 [QPP. 2 HCl, 5-((4-(5-bromopyridin-2-yl)piperazin-1-ium-1-yl)methyl)-8-hydroxyquinolin-1-ium chloride]",IC50,[1],> 3.2 µM
"COc1cc(OC)cc(C(=O)Oc2ccc(Cl)c3cccnc23)c1 [compound 15, 5-chloro-8-quinolinyl 3,5-dimethoxybenzoate]",IC50,[2],> 100 µM
"COc1cc(C(=O)Oc2ccc(Cl)c3cccnc23)cc(OC)c1OC [compound 14, 5-chloro-8-quinolinyl 3,4,5-trimethoxybenzoate]",IC50,[2],> 100 µM
"Oc1ccc(CN2CCN(c3ccc(Br)cc3)CC2)c2cccnc12 [QPB4 . 2 HCl, 5-((4-(4-bromophenyl)piperazin-1-ium-1-yl)methyl)-8-hydroxyquinolin-1-ium chloride]",IC50,[1],> 1.6 µM
